Reference: patent US6806257B1, “Flavones as inducible nitric oxide synthase inhibitors, cyclooxygenase-2 inhibitors and potassium channel activators” (priority 1999, dated 2004)
Entries after “also recorded” stand apart in the source; their conditions may differ. Read-outs that look alike come from different tables or passages of the source.

Experiments:
[1] = system: porcine cerebral arteries; assay: In vitro tissue bath vasorelaxation of precontracted porcine cerebral arteries; settings: for relaxation of cerebral arteries: concentrations as high as 100 μM, n=4
[2] = system: LPS-induced NO production in RAW264.7 macrophages; assay: LPS-induced nitrite (NO) production in RAW264.7 macrophages, Griess reaction; format: cell-based, mouse; settings: for NO: 24 hours; for IC50: Mus musculus, RAW264.7, together with LPS (100 μg/mL) for 24 hours, n=3, read-out: IC50 in inhibiting LPS-induced NO production
Description: (§1) Cells. RAW264.7, a mouse macrophage cell line, was obtained from American Type Culture Collection. Cells were cultured in RPMI-1640 medium (available from Gibco Life Technology, in Gaithersburg, Md.) supplemented with 2 mM L-glutamine, antibiotics (100 units/ml penicillin-A and 100 units/ml streptomycin) and 10% heat-inactivated fetal bovine serum (Gibco/BRL) and maintained at 37° C in a humidified incubator containing 5% CO2.
Nitrite assay. The nitrite concentration in the medium was measured as an indicator of NO production according to the Griess reaction (Kim et al., J. Immunol. 153: 4741-4748). One hundred microliters of each supernatant was. mixed with the same volume of Griess reagent (1% sulfanilamide in 5% phosphoric acid and 0. 1% naphthylethylenediamine dihydrochloride in water); absorbency of the mixture at 550 nm was determined with an enzyme-linked immunosorbent assay plate reader (Dynatech MR-7000; Dynatech Labs, Chantilly, Va.).
The effects of flavonoids, ellagitannins, anthraquinones on LPS-induced NO production in macrophages were studied as follows. The chemical structures of two flavonoids (myricitrin, N1; oroxylin A, N2) four ellagitannins (penta-O-galloyl-β-glucopyranose, N3; woodfordin C, N4; onothein B, N5; cuphiin, N6), and two anthraquinones (emodin, N7; physcion, N8) that were used in the present study were shown in FIG. 1. The effects of these eight compounds on NO production in RAW264.7 macrophages were investigated. The accumulated nitrite in the culture medium was used as an index for NO synthesis from these cells. […]

[3] = system: iNOS; assay: LPS-induced iNOS expression in RAW264.7 macrophages (western/northern blot); format: cell-based, mouse; settings: for increased expression of iNOS in NLA or L-NAME plus LPS treated cells: NLA (or L-NAME) plus LPS co-treated
Description: as §1
(§2) Western blots. Total cellular extract, cytosolic fractions (for IkB) and nuclear fraction (for p65 antibody) were prepared according to Muller et al., Immunobiology, 187, 233-256, 1993 and separated on sodium dodecyl sulfatepolyacrylamide minigels (8% for iNOS or COX-2, and 10% for IkB or p65) and transferred to immobilon polyvinylidene difluoride membranes (Millipore, Bedford, Mass.). The membrane was incubated overnight at 4° C. with 1% bovine serum albumin and then incubated with anti-iNos, COX-2, α-Tubulin monoclonal antibodies (Transduction Laboratories, Lexington, Ky.), anti-IkB or anti-p65 polyclonal antibodies (Santa Cruz Biochemicals, Santa Cruz, Calif.). iNOS, IkB, p65, Cox-2, α-Tubulin were detected by NBT and BCIP staining (Sigma Chemical Co., St. Louis, Mo.).
Northern blot analysis. Total RNA (20 μg/lane) were separated by electrophoresis on 1.2% agarose gel containing 6.7% formaldehyde and transformed to a Hybond-N nylon membrane (American Life Science) in 20×standard saline citrate (3 M sodium chloride and 0.3 M sodium citrate, pH 7.0). After heating at 80° C. for 2 hours and prehybridization for 4 hours, the filters were hybridized with ^32P-labeled murine iNOS cDNA probes at a concentration of 3×10^6 cpm/ml for 16-18 hours at 42° C. The probe was labeled with [α-32P] dCTP by using Random Primer labeling kit (Stratagene, La Jolla, Calif.). Then, the filters were washed, dried and autoradiographed with Kodak-X-Omat XAR-film using intensifying screens at −80° C.

[4] = system: COX-2; assay: LPS-induced COX-2 expression in RAW264.7 macrophages (western/northern blot); format: cell-based, mouse; settings: for LPS-induced COX-2 protein: 20, 40 μM with LPS (100 ng/mL) for 24 hours; for basal COX-2 expression, compound alone: no LPS
Description: as §1, §2

[5] = system: iNOS; assay: Indirect iNOS enzyme assay: NO in medium of LPS-pretreated intact RAW 264.7 cells; format: cell-based, mouse; settings: for iNOS enzyme activity in intact cells by nitrite production in the medium: added to cells pre-treated with LPS
[6] = system: iNOS; assay: Direct iNOS enzyme activity assay in RAW 264.7 cell lysates; format: biochemical, mouse; settings: for NO production by direct enzyme activity assay, compound added to lysate (Table 3): lysates of LPS-treated cells
[7] = system: COX-2; assay: COX-2 enzyme activity: PGE2 from added arachidonic acid in LPS-treated RAW 264.7 cells; format: cell-based, mouse; settings: for PGE2: then arachidonic acid (100 μM) 15 min; for PGE2 production using added arachidonic acid as a substrate: added after COX-2 induction by LPS
[8] = system: LPS-induced PGE2 production in RAW 264.7 macrophages; assay: LPS-induced PGE2 production in RAW 264.7 macrophages (co-treatment); format: cell-based, mouse; settings: for PGE2: 24 hours
Description: Un-stimulated RAW 264.7 macrophages in culture medium for 24 hours produced basal amount of PGE2 (1.5 ng/mL) in the medium.

[9] = system: NF-kB (p65) / IkB; assay: Nuclear p65 / cytosolic IkB western blot in LPS-treated RAW264.7 macrophages; format: cell-based, mouse; settings: 20 μg/ml, 100 ng/ml LPS for 30 minutes
Description: as §2
NF-kB is a transcription factor that is activated in response to stimulation by LPS, and activation of NF-kB is an essential factor in inducing iNOS gene expression in macrophages (Kim, Y. M., Biochem. Biophys. Res. Commun. 236, 655-660, 1997). To assess the effect of these compounds (20 μg/ml) on early stage of iNOS gene expression, the activation of NF-kB in RAW264.7 macrophages was examined using the electrophoretic mobility shift assay (EMSA) (FIGS. 6i and 6ii).

[10] = system: iNOS; assay: LPS-induced nitrite production and iNOS expression in Bcl-2-overexpressed RAW264.7 cells; format: cell-based, mouse; settings: 20 μg/ml, LPS 100 ng/ml, Bcl-2/RAW-1 and Bcl-2/RAW-2 cells
[11] = system: RAW264.7 cells; settings: mouse, 20 μg/ml
[12] = arteries without endothelial cells, U-46619
[13] = LPS + L-NAME (2 mM) + compound 40 μM
[14] = LPS + NLA (2 mM) + compound 40 μM
[15] = different concentrations together with LPS for 24 hours
[16] = 20 μM added for 12 hours after LPS (100 ng/ml) 12 hours pretreatment
[17] = 40 μM added for 12 hours after LPS (100 ng/ml) 12 hours pretreatment
[18] = 20 μM added to lysate of LPS (100 ng/mL, 12 hr)-treated cells
[19] = 40 μM added to lysate of LPS (100 ng/mL, 12 hr)-treated cells
[20] = lysates of LPS-pretreated cells incubated with 20 μM for 12 hours
[21] = lysates of LPS-pretreated cells incubated with 40 μM for 12 hours
[22] = 20 μM for 30 min after LPS 6 hours
[23] = 40 μM for 30 min after LPS 6 hours

Nc1ccncc1 [4-aminopyridine, reference compound]
effect of the blocker/inhibitor on oroxylin A-induced relaxation [1, 12]: significantly inhibited

O=c1cc(-c2ccccc2)oc2cc(O)c(O)c(O)c12 [baicalein]
NO [2, 13]: 7.9 ± 1.2 μmole/4 × 10^5
NO [2, 14]: 8.3 ± 1.3 μmole/4 × 10^5
IC50 [2]: 19.4 ± 1 µM
LPS-induced nitrite production [2, 15]: significant concentration-dependent inhibition
increased expression of iNOS in NLA or L-NAME plus LPS treated cells [3]: inhibited
LPS-induced COX-2 protein [4]: did not inhibit
basal COX-2 expression, compound alone [4]: did not affect
NO in medium [5, 16]: 15.4 ± 0.3 μM/6 × 10^5 cells
NO in medium [5, 17]: 13.1 ± 0.9 μM/6 × 10^5 cells
iNOS enzyme activity in intact cells by nitrite production in the medium [5]: did not affect
direct effect on iNOS enzyme activity [6]: did not directly affect
iNOS specific activity: NO formation [6, 18]: 7.2 ± 0.1 μM/200 μg total protein
iNOS specific activity: NO formation [6, 19]: 9.2 ± 1.8 μM/200 μg total protein
iNOS specific activity: NO formation [6, 20]: 9.8 ± 2.3 μM/200 μg protein
iNOS specific activity: NO formation [6, 21]: 8.1 ± 1.9 μM/200 μg protein
NO production by direct enzyme activity assay, compound added to lysate (Table 3) [6]: did not inhibit
direct effect on COX-2 enzyme activity [7]: did not directly affect
PGE2 [7, 22]: 6.1 ± 0.2 ng/mL
PGE2 [7, 23]: 6.2 ± 0.5 ng/mL
PGE2 production using added arachidonic acid as a substrate [7]: no decrease
PGE2 [8, 13]: 6.2 ± 0.5 ng/mL
PGE2 [8, 14]: 5.5 ± 0.8 ng/mL

O=C(O)[C@H]1O[C@@H](Oc2cc3oc(-c4ccccc4)cc(=O)c3c(O)c2O)[C@H](O)[C@@H](O)[C@@H]1O [baicalin]
NO [2, 13]: 8.5 ± 0.9 μmole/4 × 10^5
NO [2, 14]: 7.1 ± 0.3 μmole/4 × 10^5
IC50 [2]: 15 ± 1.4 µM
LPS-induced nitrite production [2, 15]: significant concentration-dependent inhibition
increased expression of iNOS in NLA or L-NAME plus LPS treated cells [3]: inhibited
LPS-induced COX-2 protein [4]: did not inhibit
basal COX-2 expression, compound alone [4]: did not affect
NO in medium [5, 16]: 14.5 ± 0.5 μM/6 × 10^5 cells
NO in medium [5, 17]: 14.8 ± 1.5 μM/6 × 10^5 cells
iNOS enzyme activity in intact cells by nitrite production in the medium [5]: did not affect
direct effect on iNOS enzyme activity [6]: did not directly affect
iNOS specific activity: NO formation [6, 18]: 8.7 ± 1.0 μM/200 μg total protein
iNOS specific activity: NO formation [6, 19]: 9.0 ± 1.1 μM/200 μg total protein
iNOS specific activity: NO formation [6, 20]: 8.7 ± 1.3 μM/200 μg protein
iNOS specific activity: NO formation [6, 21]: 9.4 ± 2.1 μM/200 μg protein
NO production by direct enzyme activity assay, compound added to lysate (Table 3) [6]: did not inhibit
direct effect on COX-2 enzyme activity [7]: did not directly affect
PGE2 [7, 22]: 6.1 ± 0.6 ng/mL
PGE2 [7, 23]: 5.9 ± 0.4 ng/mL
PGE2 production using added arachidonic acid as a substrate [7]: no decrease
PGE2 [8, 13]: 6.1 ± 0.3 ng/mL
PGE2 [8, 14]: 5.8 ± 1.1 ng/mL

Cc1cc(O)c2c(c1)C(=O)c1cc(O)cc(O)c1C2=O [emodin, Emodin, reference compound]
LPS-induced nitrite production ([2]; 5, 10 or 20 μg/ml together with 100 ng/ml LPS for 24 hours): significant inhibition
blocking LPS-induced iNOS gene expression, comparison among compounds tested [3]: potent inhibitory effect, comparable to oroxylin A
LPS-induced iNOS protein ([3]; 100 ng/ml LPS, western blot): inhibited LPS-induced iNOS protein in a concentration-dependent manner
LPS-induced increase of nuclear p65 and decrease of cytosolic IkB [9]: did not block
LPS-induced iNOS gene expression [10]: inhibited
LPS-induced nitrite production [10]: inhibited
relaxation of cerebral arteries [1]: very small relaxation or no response
cytotoxity by MTT assay [11]: ~30%

O=C(O[C@@H]1Cc2c(O)cc(O)cc2O[C@@H]1c1cc(O)c(O)c(O)c1)c1cc(O)c(O)c(O)c1 [epigallocatechin gallate, reference compound]
relaxation of cerebral arteries [1]: very small relaxation or no response

C[C@@H]1C(=O)O[C@H]2C[C@@]34[C@H]5C[C@@H](C(C)(C)C)[C@]36[C@@H](OC(=O)[C@@H]6O)O[C@@]4(C(=O)O5)[C@]21O [ginkgolide A, reference compound]
relaxation of cerebral arteries [1]: very small relaxation or no response

CC1C(=O)OC2C(O)C34C5CC(C(C)(C)C)C36C(OC(=O)C6O)OC4(C(=O)O5)C12O (stereo not shown) [ginkgolide B, reference compound]
relaxation of cerebral arteries [1]: very small relaxation or no response

Cc1cnc(C(=O)NCCc2ccc(S(=O)(=O)NC(=O)NC3CCCCC3)cc2)cn1 [glipizide, reference compound]
effect of the blocker/inhibitor on oroxylin A-induced relaxation [1, 12]: did not affect

COc1ccc2c(c1)c(CC(=O)O)c(C)n2C(=O)c1ccc(Cl)cc1 [indomethacin, reference compound]
PGE2 [7, 22]: 2.0 ± 0.7 ng/mL
PGE2 production using added arachidonic acid as a substrate [7]: significantly inhibited

COc1c(O)cc(O)c2c(=O)cc(-c3ccccc3)oc12 [wogonin, 5,7-dihydroxy-8-methoxy flavone]
NO [2, 13]: 6.8 ± 0.5 μmole/4 × 10^5
NO [2, 14]: 6.7 ± 0.7 μmole/4 × 10^5
LPS-induced nitrite production [2, 15]: significant concentration-dependent inhibition
increased expression of iNOS in NLA or L-NAME plus LPS treated cells [3]: inhibited
NO in medium [5, 16]: 16.5 ± 0.3 μM/6 × 10^5 cells
NO in medium [5, 17]: 16.3 ± 0.3 μM/6 × 10^5 cells
PGE2 [8, 13]: 2.3 ± 0.7 ng/mL
PGE2 [8, 14]: 2.1 ± 0.4 ng/mL
LPS-induced PGE2 production ([8]; co-treatment 20 and 40 μM, LPS (100 ng/mL) 24 hours): inhibited

Iberiotoxin (QFTDVDCSVSKECWSVCKDLFGVDRGKCMGKKCRCYQ; UniProt P24663 1-37, looked up) [reference compound]
effect of the blocker/inhibitor on oroxylin A-induced relaxation [1, 12]: slightly but significantly inhibited

cuphiin D1
LPS-induced increase of nuclear p65 and decrease of cytosolic IkB [9]: did not block

oenothein B
LPS-induced increase of nuclear p65 and decrease of cytosolic IkB [9]: significantly inhibited

tetraethylammonium [TEA, reference compound]
effect of the blocker on oroxylin A-induced relaxation [1]: significantly shifted the oroxylin A concentration response curves to the right; also recorded: almost abolished
effect of the blocker/inhibitor on oroxylin A-induced relaxation [1]: concentration-dependently (1-10 mM) inhibited; also recorded: blocked
